# In US7601856B2 (Wyeth, priority 2006, dated 2009):
# Like-named read-outs stand apart in the source and are kept apart here.
# Key:
# [1] = system: isolated rat bladder strips; test: Inhibition of contractions of isolated rat bladder strips; details: for IC50: 0.5 h; for inhibition at 30 µM: read-out: % Inhibition of Contractility @ 30 μM
# Experimental: The compounds of the examples were tested to determine their ability to inhibit contractions of isolated rat bladder strips. See Foster, C. […] Malmgren, A. et al. J.Urol.
# Male Sprague-Dawley rats (150-200 g) were obtained from ACE animal suppliers. Animals were allowed free access to food and water.
# Animals were euthanized by CO2 asphyxiation followed by a bilateral thoracotomy. […] The bladder was opened and then cut into strips 1-2 mm in width and 7-10 mm in length. The strips were subsequently suspended in a 10 ml tissue bath under an initial resting tension of 1.5 g. The strips were held in place by two surgical clips one of which was attached to a fixed hook while the other was attached to an isometric force transducer. […] The carbachol was then washed out and the tissue allowed to relax to its resting level of activity. Following a further 30 minute period of recovery an additional 15 mM KCl were introduced into the tissue bath. […] Following stabilization of this enhanced level of contractile activity, incremental increases in the concentration of test compound or vehicle were introduced into the tissue bath. Contractile activity was measured for each compound or vehicle concentration during the last minute of a 30 minute challenge.
# Isometric force developed by the bladder strips was measured using a force transducer and recorded on a polygraph. Contractile activity was assessed by measuring either the average amplitude of the contractions (baseline to peak force) occurring during a one minute period or, preferably, by integrating the contractile activity with respect to time (one minute measuring period).
# The percentage inhibition of contractile activity evoked by each concentration of a given test compounds was used to generate a concentration-response curve.
# [2] = concentration eliciting 50% inhibition of pre-drug contractile activity, strips stimulated with additional 15 mM KCl, 30 minute challenge per concentration, read-out: IC50
# [3] = maximum percentage inhibition of contractile activity, 30 μM, strips stimulated with additional 15 mM KCl
SMILES,"IC50 [1, 2]",melting point,"inhibition at 30 µM [1, 3]",also measured
"CC(C)(C)C(=O)Nc1ccc2oc3c(c2c1)CCCC3 [Example 1, 2,2-DIMETHYL-N-(6,7,8,9-TETRAHYDRO-DIBENZOFURAN-2-YL)-PROPIONAMIDE]",0.2 to 0.7 µM,210 to 211 °C,,
"CC(C)CC(=O)Nc1ccc2oc3c(c2c1)CCCC3 [Example 2, 3-METHYL-N-(6,7,8,9-TETRAHYDRO-DIBENZOFURAN-2-YL)-BUTYRAMIDE]",1.2 to 4 µM,154 to 157 °C,,
"CC(C)(C)CC(=O)Nc1ccc2oc3c(c2c1)CCCC3 [Example 3, 3,3-DIMETHYL-N-(6,7,8,9-TETRAHYDRO-DIBENZOFURAN-2-YL)-BUTYRAMIDE]",3 to 11 µM,164 to 165 °C,,
"O=C(Cc1ccccc1)Nc1ccc2oc3c(c2c1)CCCC3 [Example 4, 2-PHENYL-N-(6,7,8,9-TETRAHYDRO-DIBENZOFURAN-2-YL)-ACETAMIDE]",9.1 to 12 µM,180 to 181 °C,,
"O=C(Nc1ccc2oc3c(c2c1)CCCC3)C12CC3CC(CC(C3)C1)C2 [Example 5, ADAMANTANE-1-CARBOXYLIC ACID (6,7,8,9-TETRAHYDRO-DIBENZOFURAN-2-YL)-AMIDE]",,247 to 248 °C,10 to 30%,
"CC(CC(=O)Nc1ccc2oc3c(c2c1)CCCCCC3)CC(C)(C)C (centres unmarked) [Example 66, N-(6,7,8,9,10,11-HEXAHYDROBENZO[B]CYCLOOCTA[D]FURAN-2-YL)-3,5,5-TRIMETHYLHEXANAMIDE]",,,5 to 20%,
"CC(C)(C)c1ccc(C(=O)Nc2ccc3oc4c(c3c2)CCCCCC4)cc1 [Example 68, 4-TERT-BUTYL-N-(6,7,8,9,10,11-HEXAHYDROBENZO[B]CYCLOOCTA[D]FURAN-2-YL)BENZAMIDE]",,,20 to 40%,
"Cc1cccc(C(=O)Nc2ccc3oc4c(c3c2)CCCCCC4)c1 [Example 69, N-(6,7,8,9,10,11-HEXAHYDROBENZO[B]CYCLOOCTA[D]FURAN-2-YL)-3-METHYLBENZAMIDE]",,,10 to 20%,
"O=C(CCC1CCCC1)Nc1ccc2oc3c(c2c1)CCCCCC3 [Example 70, 3-CYCLOPENTYL-N-(6,7,8,9,10,11-HEXAHYDROBENZO[B]CYCLOOCTA[D]FURAN-2-YL)PROPANAMIDE]",,,15 to 30%,
"O=C(Cc1ccccc1)Nc1ccc2oc3c(c2c1)CCCCCC3 [Example 75, N-(6,7,8,9,10,11-HEXAHYDROBENZO[B]CYCLOOCTA[D]FURAN-2-YL)-2-PHENYLACETAMIDE]",,,,inhibition at 30 µM [1]: 30 to 40%
"O=C(Nc1ccc2oc3c(c2c1)CCCCCC3)c1ccncc1 [Example 77, N-(6,7,8,9,10,11-HEXAHYDROBENZO[B]CYCLOOCTA[D]FURAN-2-YL)ISONICOTINAMIDE]",,,30 to 50%,
"O=C(Cc1ccncc1)Nc1ccc2oc3c(c2c1)CCCCCC3 [Example 78, N-(6,7,8,9,10,11-HEXAHYDROBENZO[B]CYCLOOCTA[D]FURAN-2-YL)-2-PYRIDIN-4-YLACETAMIDE]",,,,IC50 [1]: 10 to 14 µM
"O=C(CCl)Nc1ccc2oc3c(c2c1)CCCCCC3 [Example 79, 2-CHLORO-N-6,7,8,9,10,11-HEXAHYDROBENZO[B]CYCLOOCTA[D]FURAN-2-YLACETAMIDE]",,,,IC50 [1]: 0.2 to 0.4 µM
"O=C(CO)Nc1ccc2oc3c(c2c1)CCCCCC3 [Example 80, N-6,7,8,9,10,11-HEXAHYDROBENZO[B]CYCLOOCTA[D]FURAN-2-YL-2-HYDROXYACETAMIDE]",,,30 to 50%,
"CCCCC(=O)Nc1ccc2oc3c(c2c1)CCCCCC3 [Example 81, N-6,7,8,9,10,11-HEXAHYDROBENZO[B]CYCLOOCTA[D]FURAN-2-YLPENTANAMIDE]",,,,inhibition at 30 µM [1]: 10 to 30%
"CCCCCCC(=O)Nc1ccc2oc3c(c2c1)CCCCCC3 [Example 82, N-6,7,8,9,10,11-HEXAHYDROBENZO[B]CYCLOOCTA[D]FURAN-2-YLHEPTANAMIDE]",,,,IC50 [1]: 0.6 to 2 µM
"CCOC(=O)Nc1ccc2oc3c(c2c1)CCCCC3 [Example 85, ETHYL 7,8,9,10-TETRAHYDRO-6H-BENZO[B]CYCLOHEPTA[D]FURAN-2-YLCARBAMATE]",,,40 to 60%,
"CN(C)C(=O)Nc1ccc2oc3c(c2c1)CCCCCC3 [Example 87, N′-(6,7,8,9,10,11-HEXAHYDROBENZO[B]CYCLOOCTA[D]FURAN-2-YL)-N,N-DIMETHYLUREA]",,,25 to 35%,
"CC(C)OC(=O)Nc1ccc2oc3c(c2c1)CCCCCC3 [Example 88, ISOPROPYL 6,7,8,9,10,11-HEXAHYDROBENZO[B]CYCLOOCTA[D]FURAN-2-YLCARBAMATE]",,,20 to 30%,

# More lines, main results first:
"IC50 [1, 2]",melting point,SMILES,"inhibition at 30 µM [1, 3]",also measured
,185 to 186 °C,"CC(C)(C)c1ccc(C(=O)Nc2ccc3oc4c(c3c2)CCCC4)cc1 [Example 6, 4-TERT-BUTYL-N-(6,7,8,9-TETRAHYDRO-DIBENZOFURAN-2-YL)-BENZAMIDE]",10 to 20%,
10 to 15 µM,189 to 191 °C,"O=C(CC1CCCCC1)Nc1ccc2oc3c(c2c1)CCCC3 [Example 7, 2-CYCLOHEXYL-N-(6,7,8,9-TETRAHYDRO-DIBENZOFURAN-2-YL)-ACETAMIDE]",,
4 to 8 µM,164 to 165 °C,"CCC(=O)Nc1ccc2oc3c(c2c1)CCCC3 [Example 8, N-(6,7,8,9-TETRAHYDRO-DIBENZOFURAN-2-yl)-PROPIONAMIDE]",,
6 to 8 µM,206.5 to 208 °C,"CC(C)C(=O)Nc1ccc2oc3c(c2c1)CCCC3 [Example 9, N-(6,7,8,9-TETRAHYDRO-DIBENZOFURAN-2-YL)-ISOBUTYRAMIDE]",,
,195.5 to 197.5 °C,"CC(=O)Nc1ccc2oc3c(c2c1)CCCC3 [Example 11, N-(6,7,8,9-TETRAHYDRO-DIBENZOFURAN-2-YL)-ACETAMIDE]",20 to 30%,
,209 to 210 °C,"Cc1ccccc1C(=O)Nc1ccc2oc3c(c2c1)CCCC3 [Example 12, 2-METHYL-N-(6,7,8,9-TETRAHYDRO-DIBENZOFURAN-2-YL)-BENZAMIDE]",20 to 30%,
,197 to 197.5 °C,"COc1ccc(C(=O)Nc2ccc3oc4c(c3c2)CCCC4)cc1 [Example 13, 4-METHOXY-N-(6,7,8,9-TETRAHYDRO-DIBENZOFURAN-2-YL)-BENZAMIDE]",15 to 25%,
10 to 20 µM,145.5 to 146 °C,"CC(C)CCC(=O)Nc1ccc2oc3c(c2c1)CCCC3 [Example 14, 4-METHYL-N-(6,7,8,9-TETRAHYDRO-DIBENZOFURAN-2-YL)-PENTANAMIDE]",,
,279 to 280 °C,"O=C(Nc1ccc2oc3c(c2c1)CCCC3)c1ccc([N+](=O)[O-])cc1 [Example 15, 4-NITRO-N-(6,7,8,9-TETRAHYDRO-DIBENZOFURAN-2-YL)-BENZAMIDE]",10 to 20%,
,207 to 208 °C,"Nc1ccc(C(=O)Nc2ccc3oc4c(c3c2)CCCC4)cc1 [Example 16, 4-AMINO-N-(6,7,8,9-TETRAHYDRO-DIBENZOFURAN-2-YL)-BENZAMIDE]",5 to 10%,
,178 to 180 °C,"O=C(Nc1ccc2oc3c(c2c1)CCCC3)c1ccccc1 [Example 18, N-(6,7,8,9-TETRAHYDRO-DIBENZOFURAN-2-YL)-BENZAMIDE]",40 to 50%,
0.35 to 0.53 µM,195.5 to 197 °C,"CC(C)(C)CC(=O)Nc1ccc2oc3c(c2c1)CCC3 [Example 23, N-(2,3-DIHYDRO-1H-CYCLOPENTA[B]BENZOFURAN-7-YL)-3,3-DIMETHYL-BUTYRAMIDE]",,
1 to 5 µM,188.5 to 190 °C,"CC(C)(C)C(=O)Nc1ccc2oc3c(c2c1)CCC3 [Example 24, N-(2,3-DIHYDRO-1H-CYCLOPENTA(b)BENZOFURAN-7-YL)-2,2-DIMETHYL-PROPIONAMIDE]",,
3 to 8 µM,162 to 163 °C,"CC(C)CC(=O)Nc1ccc2oc3c(c2c1)CCC3 [Example 25, N-(2,3-DIHYDRO-1H-CYCLOPENTA[B]BENZOFURAN-7-YL)-3-METHYL-BUTYRAMIDE]",,
0.6 to 0.8 µM,,"O=C(Nc1ccc2oc3c(c2c1)CCCCCC3)c1cccs1 [Example 67, N-(6,7,8,9,10,11-HEXAHYDROBENZO[B]CYCLOOCTA[D]FURAN-2-YL)THIOPHENE-2-CARBOXAMIDE]",,
0.2 to 1 µM,,"CCCCCC(=O)Nc1ccc2oc3c(c2c1)CCCCCC3 [Example 71, N-(6,7,8,9,10,11-HEXAHYDROBENZO[B]CYCLOOCTA[D]FURAN-2-YL)HEXANAMIDE]",,
0.8 to 2.2 µM,,"O=C(CCc1ccccc1)Nc1ccc2oc3c(c2c1)CCCCCC3 [Example 72, N-(6,7,8,9,10,11-HEXAHYDROBENZO[B]CYCLOOCTA[D]FURAN-2-YL)-3-PHENYLPROPANAMIDE]",,
0.4 to 1.1 µM,,"CC(=O)Nc1ccc2oc3c(c2c1)CCCCCC3 [Example 73, N-(6,7,8,9,10,11-HEXAHYDROBENZO[B]CYCLOOCTA[D]FURAN-2-YL)ACETAMIDE]",,
10 to 15 µM,,"O=C(Nc1ccc2oc3c(c2c1)CCCCCC3)c1ccco1 [Example 74, N-(6,7,8,9,10,11-HEXAHYDROBENZO[B]CYCLOOCTA[D]FURAN-2-YL)-2-FURAMIDE]",,
7 to 14 µM,,"COc1cccc(OC)c1C(=O)Nc1ccc2oc3c(c2c1)CCCCCC3 [Example 76, N-(6,7,8,9,10,11-HEXAHYDROBENZO[B]CYCLOOCTA[D]FURAN-2-YL)-2,6-DIMETHOXYBENZAMIDE]",,
7 to 9 µM,,"O=C(Nc1ccc2oc3c(c2c1)CCCCCC3)N1CCOCC1 [Example 86, N-(6,7,8,9,10,11-HEXAHYDROBENZO[B]CYCLOOCTA[D]FURAN-2-YL)MORPHOLINE-4-CARBOXAMIDE]",,
